From PubChem BioAssay AID489041 (Sanford-Burnham Center for Chemical Genomics, 2010) come the findings set out here.

Calls of active or inactive are those of the source. The rule behind the calls is not given here. Bounds are passed on as bounds.

The test has as its system HEK-293T NF-kB luciferase reporter counterscreen, luminescence. Put plainly: inhibitors of HEK-293T NF-kB luciferase – HEK-293T cells, luminescence, counter-screen for T-cell antigen receptor NF-kB inhibitors, dose response (AID 489041). A general note: A counterscreen serves to expose hits that act by an unwanted route or on another target.
Turning to `Cc1ccc(NS(=O)(=O)c2ccc(C(=O)NC3CCN(Cc4ccccc4)CC3)cc2)cc1`, the IC50 is 7.66 µM.

As for `COc1ccc(/C=N/Nc2cc(C)nc3ccc(OC)cc23)c(OC)c1`, the IC50 is 25.7 µM (inactive).

For the compound `C[C@]12CC[C@H](O)C[C@H]1CC[C@@H]1[C@@H]2C[C@@H](O)[C@]2(C)[C@@H](C3=CC(=O)OC3)CC[C@]12O`, the IC50 was 0.58 µM.

As to `COc1cc(NC(=O)N2CCNC2=O)cc(C(=O)Nc2cccc(C(F)(F)F)c2)c1`, the IC50 was 2.17 µM.

Take `O=C(Sc1cccc2cccnc12)c1ccccc1Br`: the IC50 is 27.1 µM (inactive).

In the case of `Cc1cc(-c2ccc(C(C)C)c(S(=O)(=O)N3CCN(c4ccccc4)CC3)c2)on1`, the IC50 is 22 µM (inactive).

Take `CCCC(=O)NC(c1ccc(C(C)C)cc1)c1ccc2cccnc2c1O` (stereo not given): the IC50 is 0.66 µM.

Regarding `O=C(Nc1ccc(Cc2ccncc2)cc1)c1ccc(S(=O)(=O)N2CCCC2)cc1`, the IC50 was 2.75 µM.

For the compound `CCN1C=CC(=C2C(=O)c3ccccc3C2=O)C=C1`, the half-maximal inhibitory concentration (IC50) is 0.92 µM.

Consider `Cn1nc([N+](=O)[O-])nc1Sc1nnc(-c2ccccc2)o1`, for which the IC50 is 37.5 µM (inactive).

`CCOC(=O)Nc1nc(-c2ccccc2)c(C(=O)c2ccc(Cl)cc2)s1`: the IC50 was 3.06 µM.

`C/C=C/COC(=O)c1[nH]c2c(c1C)C(=O)CC(c1ccco1)C2` (stereo not given): the 50% inhibitory concentration (IC50) is 0.34 µM.

For `CCCCCCCCCCn1ccc(=N)cc1`, the IC50 is 0.61 µM.

As for `Cc1c(C(=O)N/N=C/c2ccc(Cl)cc2)[nH]c2ccc(Cl)cc12`, the IC50 is 1.95 µM.

In the case of `CCN(CC)S(=O)(=O)c1cc(NC(=O)CNc2cccc(S(=O)(=O)N3CCCC3)c2)ccc1C`, the IC50 is 2.52 µM.

With `O=C(N=Nc1c(O)[nH]c2ccc(Br)cc12)c1ccccc1-n1cccc1`, the IC50 was 7.76 µM.

For the compound `O=C(COc1ccc2c(-c3ccccc3)cc(=O)oc2c1)Nc1cccnc1`, the IC50 is 0.26 µM.

`CC(=O)NC(c1ccc(C(C)C)cc1)c1ccc2cccnc2c1O` (stereo not given): the IC50 is 40.7 µM (inactive).

With `O=C(Nc1cccc2ccccc12)OC1C=CS(=O)(=O)C1` (stereo not given), the IC50 is 51.2 µM (inactive).

For `CCOC(=O)/C=C/S(=O)(=O)c1ccc(NC(C)=O)cc1`, the IC50 is 20.1 µM (inactive).

For the compound `COc1ccc(-n2cc(-c3ccc(C)cc3)[n+]3c2SCC3)cc1`, the IC50 was 5.82 µM.

In the case of `COc1ccc(C(=O)Nc2ccc3[nH]c(-c4cccc(OC)c4)cc(=O)c3c2)cc1`, the IC50 is > 80 µM (inactive).

On to `CCOc1ccc(S(=O)(=O)NCc2ccccn2)cc1NC(=O)c1ccccc1`, for which the IC50 was 40.7 µM (inactive).

As to `COc1ccccc1C(=O)Nc1nc2ccccc2s1`, the IC50 is 0.8 µM.

As to `COc1cccc(/C=N/Nc2ncnc3c2ncn3Cc2ccccc2)c1O`, the IC50 is 0.25 µM.

Regarding `CCC(C)C(=O)N[C@@H](c1ccccc1)[C@@H](O)C(=O)O[C@H]1C[C@@]2(O)[C@@H](OC(=O)c3ccccc3)C3[C@](C)(C(=O)[C@H](OC(C)=O)C(=C1C)C2(C)C)[C@@H](O)C[C@H]1OC[C@@]31OC(C)=O` (stereo not given in full), the IC50 is > 80 µM (inactive).

On to `CC1CCN(c2c(NCc3ccc(C(=O)N4CCc5ccccc54)cc3)c(=O)c2=O)CC1`, for which the IC50 is 7.14 µM.

With `CCOCCCNC(=O)c1cc2c(=O)n3cccc(C)c3nc2n1C`, the IC50 is > 80 µM (inactive).

As to `Cc1ccc(C(=O)c2cc([N+](=O)[O-])ccc2N2CCCCC2)cc1`, the IC50 was 4.17 µM.

`CC(C)(C)c1ccc(C(=O)Nc2ccc(Oc3cccnc3)nc2)cc1`: the IC50 is 2.18 µM.

On to `Cc1cc(C)cc(C(=O)N2CC(=O)Nc3ccccc32)c1`, for which the IC50 is 4.64 µM.

Turning to `Cc1ccc(C(=O)c2cc([N+](=O)[O-])ccc2N2CCCCC2)cc1C`, the IC50 is 6.16 µM.

As to `Cc1cc(C)c2nc(C)cc(N/N=C/c3ccc(O)cc3)c2c1`, the IC50 is 12.9 µM.

Take `CCn1c(C)cc(C(=O)CN2C(=O)c3ccccc3S2(=O)=O)c1C`: the IC50 was 5.36 µM.

Take `O=C1C=CC(O)(c2cc(=O)c3c(O)cc(O)cc3o2)C=C1`: the IC50 was 20.5 µM (inactive).

As to `Cn1nc(-c2ccccn2)nc2c(=O)n(C)c(=O)nc1-2`, the IC50 is 5.68 µM.

On to `COc1cc(C2C(C#N)=C(N)Oc3cc(N(C)C)ccc32)cc2c1OCO2` (stereo not given), for which the IC50 is 3.56 µM.

As to `COc1cccc(N/C(N)=N/c2nc(CSc3ccccn3)cc(=O)[nH]2)c1`, the IC50 is 5.9 µM.

In the case of `C[C@]12CC[C@@H]3c4cc(O)c(O)cc4CC[C@H]3[C@@H]1CC[C@@H]2O`, the IC50 was 45 µM (inactive).

Regarding `O=C(c1ccc(Cl)cc1)c1cc([N+](=O)[O-])ccc1N1CCOCC1`, the IC50 was 11.9 µM.

As for `CCOC(=O)c1[nH]c(C)c(C(=O)Nc2ccccc2C)c1C`, the IC50 was 67.3 µM (inactive).

Take `Cc1ccc(COC(=O)c2cc([N+](=O)[O-])ccc2N2CCOCC2)cc1`: the concentration for half-maximal inhibition (IC50) is 3.3 µM.

With `CC[C@]1(O)CC2CN(CCc3c([nH]c4ccccc34)[C@@](C(=O)OC)(c3cc4c(cc3OC)N(C=O)[C@H]3[C@@](O)(C(=O)OC)[C@H](OC(C)=O)[C@]5(CC)C=CCN6CC[C@]43[C@@H]65)C2)C1` (stereo not given in full), the IC50 is 3.12 µM.

As to `CC1C/C(=C/c2ccncc2)C(=O)/C(=C/c2ccncc2)C1` (stereo not given), the half-maximal inhibitory concentration (IC50) was 5.7 µM.

In the case of `O=C(Nc1ccc(S(=O)(=O)N2CCCCC2)cc1)c1ccc(CN2CCOCC2)cc1`, the IC50 was 3.95 µM.

Consider `Nc1nc(Cl)cc(N2CCC(c3cc(-c4ccc(Cl)cc4)n[nH]3)CC2)n1`, for which the IC50 was 2.44 µM.

Turning to `O=C(N[C@@H](Cc1ccccc1)C(=O)CCl)OCc1ccccc1`, the half-maximal inhibitory concentration (IC50) is 15.9 µM.

`CCCOc1ccccc1C1CC(=O)Nc2cc3c(cc21)OCO3` (stereo not given): the IC50 is 2.25 µM.

As for `CC(=O)O[C@H]1C(=O)[C@]2(C)[C@H]([C@H](OC(=O)c3ccccc3)[C@]3(O)C[C@H](OC(=O)[C@H](O)[C@@H](NC(=O)c4ccccc4)c4ccccc4)C(C)=C1C3(C)C)[C@]1(OC(C)=O)CO[C@@H]1C[C@@H]2O`, the IC50 was 76.2 µM (inactive).

In the case of `COc1ccccc1N1CCN(C(=O)C2c3ccccc3Oc3ccccc32)CC1`, the IC50 is 14.2 µM.

With `COc1cccc(N2CCN(c3ncnc4c3cnn4-c3ccc(C)cc3C)CC2)c1`, the IC50 was 2.07 µM.

On to `COC(=O)c1ccc(Oc2cc(C)nc(SC)n2)cc1`, for which the IC50 is 28.8 µM (inactive).

`COc1cc(OC)c(/C=C2\C(=O)Nc3ccccc32)c(OC)c1`: the IC50 is 6.26 µM.

Take `CCCC(=O)Nc1nc2ccc(NC(=O)c3c(F)c(F)c(OC)c(F)c3F)cc2s1`: the IC50 was > 80 µM (inactive).

On to `Cc1nn(-c2ccccc2Cl)c(Cl)c1/C=N/Nc1nc2ccccc2s1`, for which the IC50 is less than 0.16 µM.

Regarding `CC(=O)O[C@H]1C(=O)[C@@]2(C)C([C@H](OC(=O)c3ccccc3)[C@]3(O)C[C@H](OC(=O)[C@H](O)[C@@H](NC(=O)c4ccccc4)c4ccccc4)C(C)=C1C3(C)C)[C@]1(OC(C)=O)CO[C@@H]1C[C@H]2O` (stereo not given in full), the IC50 was > 80 µM (inactive).

`C/C=C(\C)C(=O)N[C@@H](c1ccccc1)[C@@H](O)C(=O)O[C@H]1C[C@@]2(O)[C@@H](OC(=O)c3ccccc3)C3[C@](C)(C(=O)[C@H](OC(C)=O)C(=C1C)C2(C)C)[C@H](O)C[C@H]1OC[C@@]31OC(C)=O` (stereo not given in full): the IC50 was > 80 µM (inactive).

`Cc1ccc(-c2cc(C(F)F)n3ncc(C(=O)N4CCc5ccccc54)c3n2)cc1`: the IC50 is 9.99 µM.

Turning to `Cc1ccc(C[n+]2c(-c3ccc(C)cc3)cc(-c3ccc(C)cc3)cc2-c2ccc(C)cc2)cc1`, the IC50 was 1.19 µM.

As for `CCOC(=O)c1ccccc1NS(=O)(=O)c1ccc(OCC)cc1`, the IC50 was 17.7 µM.

For `Cc1ccc(C)c(N=Nc2ccc(O)c3ncccc23)c1`, the IC50 is 21 µM (inactive).

For `CCOc1cccc(/C=N/Nc2ccc(S(=O)(=O)N(CC)CC)cn2)c1O`, the IC50 is 0.31 µM.

As for `CCOc1ccc(S(=O)(=O)NCc2ccccn2)cc1NC(=O)c1ccccc1F`, the IC50 is > 80 µM (inactive).

Consider `CCOC(=O)CC1CCCCN1C(=O)c1cc(COc2cccc3cnccc23)on1` (stereo not given), for which the IC50 is 1.81 µM.

In the case of `Cc1nc2ccccc2c2c1CC(C(C)(Cl)Br)O2` (stereo not given), the IC50 was 2.9 µM.

On to `COC(=O)Nc1ccc(S(=O)(=O)N2c3ccccc3CCC2C)cc1` (stereo not given), for which the IC50 is 13.1 µM.

With `COc1cccc(/C=N/NC(=O)c2[nH]nc3c2CCc2ccccc2-3)c1O`, the IC50 was 0.21 µM.

With `Cc1cc(C)cc(NS(=O)(=O)c2ccc(-c3cnc(C4CC4)o3)cc2)c1`, the IC50 is 1.8 µM.

`O=S(=O)(c1cc(F)ccc1F)N1CCN(c2ncnc3ccccc23)CC1`: the concentration for half-maximal inhibition (IC50) was 3.94 µM.

For `O=C1c2cccc3cc([N+](=O)[O-])cc(c23)C(=O)N1CCN1CCCC1`, the IC50 is > 80 µM (inactive).

In the case of `CC(C)(C)c1ccc(C(=O)O/N=C(\N)c2ccccn2)cc1`, the IC50 is 0.23 µM.

Turning to `O=C(NCCOc1ccccc1)c1cc([N+](=O)[O-])ccc1N1CCOCC1`, the IC50 is 72.2 µM (inactive).

For the compound `CC(=O)c1sc2c(c1OC(=O)c1ccc(Cl)cc1Cl)c(=O)n(-c1ccccc1)c(=S)n2-c1ccccc1`, the IC50 is 28.7 µM (inactive).

Consider `COc1cccc(N2CCN(C(=O)c3cn(Cc4ccccc4)nc3-c3cccnc3)CC2)c1`, for which the IC50 was 16.4 µM.

Regarding `CC1CC(C)CN(S(=O)(=O)c2ccc(NC(=O)c3ccc(=O)[nH]c3)cc2)C1` (stereo not given), the IC50 is 12.6 µM.

In the case of `C=C(C)COc1ccc(-c2n[nH]c(C)c2-c2ccc(OC)c(OC)c2)c(O)c1`, the 50% inhibitory concentration (IC50) was 9.37 µM.

Take `COc1ccc(N(C(=O)c2ccccc2C)S(=O)(=O)c2cccs2)cc1`: the IC50 is > 80 µM (inactive).

In the case of `Cc1ccc(N/C(N)=N/c2nc(CSc3nnc(C)s3)cc(=O)[nH]2)c(C)c1`, the IC50 was 4.17 µM.

As to `Cc1ccc(-n2ncc3c(N4CCN(c5ccccc5)CC4)ncnc32)c(C)c1`, the half-maximal inhibitory concentration (IC50) was 3.24 µM.

With `CCOc1ccccc1C(=O)N1CCN(c2cccc(Cl)c2)CC1`, the IC50 is 2.28 µM.

`Cc1cc(NC(=O)CSc2nc3ccccc3c(=O)n2C2CCCC2)no1`: the IC50 was 19.1 µM.

Take `COc1ccc(NC(=O)/C(Cl)=C(/Cl)S(=O)Cc2ccccc2Cl)cn1` (stereo not given): the IC50 is 3.95 µM.

As for `O=C(Nc1ncc(Cc2ccc(SC(F)F)cc2)s1)c1ccc(OC(F)F)cc1`, the IC50 was 3.66 µM.

Turning to `O[C@@H]1[C@@H](O)C=C2CCN3Cc4cc5c(cc4[C@H]1C23)OCO5` (stereo not given in full), the IC50 was 1.97 µM.

For the compound `COc1cc(-c2noc(C)c2/C=C/c2ccc(OC(C)=O)cc2)cc(OC)c1OC`, the IC50 was 2.78 µM.

The term IC50 denotes the concentration at which inhibition is half-maximal.
